# “And” between values parts separate entries of the source, which are not always exact repeats. Equal values may be shown once. “Also recorded” adds a separate entry of the source. Read-outs that look alike come from different tables or passages of the source.
# Columns and labels:
# [1] = tested on: human epidermal melanocytes (HEMs); test: Cell viability of HEMs (MTT); assay type: cell-based; settings: repeated treatment for 6 days
# Procedure: (§1) Melanogenesis in HEMs was determined as previously described. Cells were pretreated with test material for 60 min, and then melanogenesis was stimulated by adding L-tyrosine (1.0 mM). Media were replaced every other day, and cells were cultured for 6 days. Intracellular melanin was extracted using 0.1 M NaOH at 60°C for 60 min, quantified by measuring absorbance at 490 nm, and normalized for protein content using the Bio-Rad DC assay. Cell viabilities were determined using 3-[4,5-dimethylthiazol-2-yl]-2,5-diphenyltetrazolium bromide.
# [2] = tested on: human epidermal melanocytes (HEMs); test: Melanin synthesis in HEMs stimulated by L-tyrosine; assay type: cell-based; settings: 1.0 mM L-tyrosine, repeated treatment for 6 days
# Procedure: as §1
# murine TYR [3] = molecular target: T1, murine TYR (Mus musculus, UniProt P11344); test: In vitro TYR activity assay with lysates of murine B16/F10 cells; assay type: biochemical
# T1 sequence (P11344 19-533): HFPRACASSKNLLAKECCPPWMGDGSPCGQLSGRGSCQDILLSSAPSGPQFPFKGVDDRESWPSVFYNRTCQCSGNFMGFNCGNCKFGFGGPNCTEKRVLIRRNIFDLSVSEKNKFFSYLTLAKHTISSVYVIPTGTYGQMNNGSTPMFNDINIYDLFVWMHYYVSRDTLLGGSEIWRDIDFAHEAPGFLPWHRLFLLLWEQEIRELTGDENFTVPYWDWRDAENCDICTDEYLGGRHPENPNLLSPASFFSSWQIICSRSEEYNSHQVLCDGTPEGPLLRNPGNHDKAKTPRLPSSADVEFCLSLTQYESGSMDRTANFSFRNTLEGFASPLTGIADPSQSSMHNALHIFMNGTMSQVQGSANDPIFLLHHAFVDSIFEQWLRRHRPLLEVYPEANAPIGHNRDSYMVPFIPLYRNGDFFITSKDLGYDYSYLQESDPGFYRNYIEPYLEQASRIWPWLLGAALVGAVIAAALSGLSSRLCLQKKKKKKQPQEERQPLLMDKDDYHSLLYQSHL
# human TYR [4] = molecular target: T2, human TYR (Homo sapiens, UniProt P14679); test: In vitro TYR activity assay with lysates of HEK293-TYR cells; assay type: biochemical; settings: for IC50: lysates of HEK293-TYR cells, read-out: IC50 against human TYR activity (converted)
# T2 construct: expressed in transfected cells
# T2 sequence (P14679 19-529): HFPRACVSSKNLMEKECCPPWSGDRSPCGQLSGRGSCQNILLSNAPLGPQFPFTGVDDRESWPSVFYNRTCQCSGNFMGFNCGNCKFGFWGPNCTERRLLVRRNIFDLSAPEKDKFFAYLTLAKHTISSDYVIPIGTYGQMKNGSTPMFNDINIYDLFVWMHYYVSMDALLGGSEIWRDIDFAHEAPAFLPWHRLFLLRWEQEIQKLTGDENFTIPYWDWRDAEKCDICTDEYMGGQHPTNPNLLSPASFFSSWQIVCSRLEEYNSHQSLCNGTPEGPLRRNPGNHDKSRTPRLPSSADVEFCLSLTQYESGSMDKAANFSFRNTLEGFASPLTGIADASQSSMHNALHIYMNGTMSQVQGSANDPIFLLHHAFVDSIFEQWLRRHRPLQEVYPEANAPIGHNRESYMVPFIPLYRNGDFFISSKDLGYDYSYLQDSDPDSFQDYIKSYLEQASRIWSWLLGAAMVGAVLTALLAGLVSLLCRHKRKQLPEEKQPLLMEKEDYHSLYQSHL
# mushroom TYR = test: In vitro mushroom TYR activity assay; assay type: biochemical; settings: compared with human and murine TYRs
# Procedure: In vitro TYR assays were run for human, murine, and mushroom TYRs. The lysates of HEK293-TYR cells were used as a human TYR preparation in most experiments. In some experiments, the lysates of murine B16/F10 cells (Figure 5), HEK293 cells, and HEMs (Figure 6) were used for comparative purposes. Mushroom TYR was purchased from Sigma-Aldrich. The reaction mixture (200 μL) containing either cell lysates (40 μg protein) or mushroom TYR (20 U) and 0.5 mM L-tyrosine, 1 μM DOPA in 100 mM sodium phosphate buffer (pH 6.8) was placed on a 96-well microplate and incubated at 37°C. The formation of DOPA chrome was monitored by measuring absorbance at 490 nm with a BioRad Model 680 microplate reader (Bio-Rad Laboratories, Inc., Hercules, CA, USA). Assays were also run in the absence of TYR enzyme to correct for potential nonenzymatic reactions. Samples and reference inhibitors were included in reaction mixtures at different concentrations.
# murine TYR [5] = molecular target: T1, murine TYR; design: method as in Yanagihara et al. [30]; settings: ref Yanagihara et al. [30]; read-out: IC50 against murine TYR (converted); cited from earlier work
# murine TYR [6] = molecular target: T1, murine TYR; design: method as in Kim et al. [29]; settings: at 100 µM or 22.8 µg mL^−1; ref Kim et al. [29]; cited from earlier work
# human TYR [7] = molecular target: T2, human TYR; test: In vitro TYR activity assay with lysates of HEMs; assay type: biochemical; settings: read-out: IC50 against human TYR activity (converted)
# Procedure: Human epidermal melanocytes (HEMs), derived from moderately pigmented neonatal foreskins, were obtained from Cascade Biologics (Portland, OR, USA). Cells were grown in Medium 254 supplemented with human melanocyte growth supplement (Cascade Biologics) and antibiotics. HEK293 cells and murine melanoma B16/F10 cells (CRL-6475) were obtained from the American Type Culture Collection (Manassas, VA, USA). HEK 293 cells were transformed into HEK293-TYR cells stably expressing human TYR, as previously described. HEK293 cells, HEK293-TYR cells, and murine melanoma B16/F10 cells were cultured in growth medium (Dulbecco's minimum Eagle's medium (DMEM) containing 10% fetal bovine serum and antibiotics (100 U mL^−1 penicillin, 0.1 mg mL^−1 streptomycin, and 0.25 µg mL^−1 amphotericin B)). Cells were cultured at 37°C in a humidified atmosphere containing 5% CO2 and 95% air. Cells were lysed in ice-cold lysis buffer (10 mM Tris-Cl, pH 7.4, 120 mM NaCl, 25 mM KCl, 2.0 mM EGTA, 1.0 mM EDTA, and 0.5% Triton X-100 and protease inhibitor cocktail) and centrifuged at 13,000 ×g for 15 min at 4°C to obtain clear supernatants which were used as cell lysates.
# In vitro TYR assays were run for human, murine, and mushroom TYRs. […] The formation of DOPA chrome was monitored by measuring absorbance at 490 nm with a BioRad Model 680 microplate reader (Bio-Rad Laboratories, Inc., Hercules, CA, USA). […]
# [8] = read-out: IC50 against murine TYR activity (converted)
smiles,measurement,setting,value
"O=C(O)/C=C/c1ccc(O)cc1 [p-coumaric acid, reference compound]",cytotoxic effect in HEMs,[1]; at 100 µM,only a little cytotoxic effect
same,effect on melanin synthesis in HEMs,[2],dose dependently attenuated
same,IC50,murine TYR [3]; [8],12.2 µM
same,IC50,human TYR [4],4.02 µM
Oc1ccc(/C=C/c2cc(O)cc(O)c2)cc1 [resveratrol],concentration causing cytotoxicity in HEMs,[1],above 10 µM
same,effect on melanin synthesis in HEMs,[2],dose dependently attenuated; also recorded: reduce melanin synthesis in HEMs at subtoxic concentrations
same,effect on melanin synthesis in HEMs,[2]; listed as Resveratrol,inhibited melanin synthesis by human epidermal melanocytes at subtoxic concentrations
same,effect on mushroom TYR activity,mushroom TYR,much smaller effect on mushroom TYR activity; also recorded: very low
same,IC50,"murine TYR [3]; dose-response curve at low concentration range, read-out: IC50 against murine TYR",4.3 µM
same,IC50,murine TYR [3]; [8],4.38 µM
same,inhibition of human TYR activity,"human TYR [4]; at 10~30 µg mL^−1, lysates of HEK293-TYR cells and HEMs",80~90%
same,IC50,human TYR [4],1.71 µM and 1.7 µM
same,IC50,murine TYR [5],10.1 µM
same,inhibition of murine TYR,murine TYR [6],32.7%
same,IC50,human TYR [7],5.3 µM and 5.26 µM

# Reference: article PMC3583093 (Evidence-based Complementary and Alternative Medicine : eCAM, 2013)
